Tests used:
SH-SY5Y neuronal cells [1] = experiment: In vitro viability assay (constitutive Renilla luciferase reporter); format: cell-based, human; conditions: 0.8 μM to 50 μM, 5 h
Protocol: The viability assay allows for further assessment of test compounds regarding their effect on cells such as neurons. Therefore, a stably transfected cell line (e.g. SH-SY5Y cells) with a reporter construct (e.g. a luciferase construct) has to be incubated with the test compound and in parallel with positive and negative controls (e.g. staurosporine and sham, respectively). Subsequently, the signal generated by the reporter construct serves as a readout for the viability of the cells in the presence of the test compound. The assay enables the evaluation of potential neurotoxic effects of the test compound itself. […]
SH-SY5Y neuronal cells stably transfected with a Renilla luciferase construct under the SV40 promoter were seeded in 96-well plates at a density of 2.5×10^4 cells per well. […] The Renilla luciferase activity was measured 5 h later using a luminometer (Berthold Technologies, Mithras LB 940). […]
Analogously to Example 5, various derivatives of tranilast (N-(3′,4′-methylenedioxycinnamoyl)-anthranilic acid (FIG. 2a (ChemBridge Corporation)), 2-(3′,4′-dimethoxycinnamoylamino)-toluene (FIG. 2b (ChemBridge Corporation)), N-cinnamoyl-anthranilic acid (FIG. 2c (ChemBridge Corporation)), and 2-(3′,4′-dimethoxycinnamoylamino)-anisole (FIG. 2d (Ambinter SARL))) have been analysed for their effect on the viability of neuronal cells. […]

SH-SY5Y neuronal cells [2] = experiment: In vitro anti-apoptosis assay (Caspase-Glo 3/7, staurosporine induced apoptosis); format: cell-based, human; conditions: for apoptosis (caspase-3/7 luminescence) relative to staurosporine: 5 h
Protocol: Neuroprotection is attainable via the inhibition of apoptosis of affected neurons. The anti-apoptotic effect of tranilast and its derivatives can be assayed in vitro by measuring the caspase-3 and caspase-7 activities. These members of the cysteine aspartic acid-specific protease (caspase) family play key effector roles in apoptosis in mammalian cells. Cortical neurons have to be isolated and subsequently cultivated in a suitable culture medium. The cells have to be incubated with the test compound in the presence of an apoptotic substance such as staurosporine. Parallel approaches with staurosporine alone and sham treatment of the cells serve as […] controls. The assay allows evaluating whether the test compound can compensate either completely or partially for the apoptotic effect of staurosporine. This assay is suitable to assess the neuroprotective activity of tranilast and derivatives thereof, but also can be used to screen for other potential neuroprotective compounds. Preferably, such a screening can be used to test compounds which are already known to be suitable as a medicament in terms of its toxicology, bioavailability, solubility, stability etc.
The neuroprotective effect of compounds can be assayed in vitro by measuring caspase-3 and caspase-7 activities. These members of the cysteine aspartic acid-specific protease (caspase) family play a key effector role in apoptosis in mammalian cells.
The human neuroblastoma cell-line SH-SY5Y (American Type Culture Collection) maintained in DMEM with high glucose supplemented with 20% FBS was used for the apoptosis assay. Alternatively one can analyse the apoptosis of primary cortical neurons which can be isolated from E18 rats and subsequently cultivated in suitable culture medium. 2.5×10^4 SH-SY5Y cells were seeded in 96-well plates and stimulated 24 h later with tranilast or vehicle in the presence of the apoptosis inducing compound staurosporine (0.5 μM, Calbiochem). After 5 h incubation at 37° C., caspase-Glo 3/7 reagent (Promega) containing luciferase and luminogenic substrate was added to the cells. The cleavage of the substrate by caspase-3 and caspase-7 was detected 30 min later using a luminometer (Berthold Technologies, Mithras LB 940). The Luminescence which is proportional to the amount of caspase activity serves as a measure for the apoptosis of the treated neurons. Tranilast was tested in a range from 0.8 μM to 100 μM final concentration.
Analogously to Example 3, various derivatives of tranilast (N-(3′,4′-methylenedioxycinnamoyl)-anthranilic acid (FIG. 2a (ChemBridge Corporation)), 2-(3′,4′-dimethoxycinnamoylamino)-toluene (FIG. 2b (ChemBridge Corporation)), N-cinnamoyl-anthranilic acid (FIG. 2c (ChemBridge Corporation)), and 2-(3′,4′-dimethoxycinnamoylamino)-anisole (FIG. 2d (Ambinter SARL))) have been analysed for their anti-apoptotic activity. The SH-SY5Y cells have been incubated with these derivatives (1 μM) either alone or in the presence of staurosporine (0.5 μM). Incubation with staurosporine (0.5 μM) alone served as positive control and incubation with vehicle served as negative control. In the case of 3-(4′-chlorocinnamoylamino)-anisole (FIG. 2e (Sigma)) the SH-SY5Y cells have been incubated with this derivative (1 μM) either alone or in the presence of staurosporine […]. Accordingly, incubation with staurosporine […] alone served as positive control and incubation with vehicle served as negative control. The degree of apoptosis relative to the staurosporine control is shown in FIG. 4 a (vehicle (sham): 9% staurosporine (SP): 100%; tranilast: 8%; tranilast plus staurosporine: 75%; derivative A: 3%; derivative A plus staurosporine: 27%; derivative B: 7%; derivative B plus staurosporine: 79%; derivative C: 2%; derivative C plus staurosporine: 20%; derivative D: 7%; derivative D plus staurosporine: 80%) and FIG. 4 b (vehicle (sham): 13%; staurosporine: 100%; derivative E: 6%; derivative E plus staurosporine: 25%).

## COc1ccc(/C=C/C(=O)Nc2ccccc2C(=O)O)cc1OC [tranilast, 2-((3-(3,4-dimethoxyphenyl)-1-oxo-2-propenyl)amino)benzoic acid]
SH-SY5Y neuronal cells [1]
  effect on the viability of neuronal cells (Renilla luciferase activity): did not show any significant effect on the viability of the neuronal cells
SH-SY5Y neuronal cells [2]; 0.8 μM tranilast plus 0.5 μM staurosporine
  apoptosis (caspase-3/7 luminescence) relative to staurosporine: 84%
SH-SY5Y neuronal cells [2]; 1.6 μM tranilast plus 0.5 μM staurosporine
  apoptosis (caspase-3/7 luminescence) relative to staurosporine: 74%
SH-SY5Y neuronal cells [2]; 3.1 μM tranilast plus 0.5 μM staurosporine
  apoptosis (caspase-3/7 luminescence) relative to staurosporine: 76%
SH-SY5Y neuronal cells [2]; 6.3 μM tranilast plus 0.5 μM staurosporine
  apoptosis (caspase-3/7 luminescence) relative to staurosporine: 74%
SH-SY5Y neuronal cells [2]; 12.5 μM tranilast plus 0.5 μM staurosporine
  apoptosis (caspase-3/7 luminescence) relative to staurosporine: 58%
SH-SY5Y neuronal cells [2]; 25 μM tranilast plus 0.5 μM staurosporine
  apoptosis (caspase-3/7 luminescence) relative to staurosporine: 46%
SH-SY5Y neuronal cells [2]; 50 μM tranilast plus 0.5 μM staurosporine
  apoptosis (caspase-3/7 luminescence) relative to staurosporine: 30%
SH-SY5Y neuronal cells [2]; 100 μM tranilast plus 0.5 μM staurosporine
  apoptosis (caspase-3/7 luminescence) relative to staurosporine: 15%
SH-SY5Y neuronal cells [2]; co-incubation with staurosporine
  anti-apoptotic effect: reduction of the staurosporine induced apoptosis: significant reduction of the staurosporine induced apoptosis
SH-SY5Y neuronal cells [2]; compound 1 μM alone, FIG. 4a (control staurosporine 0.5 μM)
  degree of apoptosis relative to the staurosporine control: 8%
SH-SY5Y neuronal cells [2]; compound 1 μM plus staurosporine 0.5 μM, FIG. 4a
  degree of apoptosis relative to the staurosporine control: 75%
